# From US20120136005A1, “E[…] THE TREATMENT OF ANXIETY” (MERZ PHARMA GmbH & CO. KGaA, priority 2009, published 2012)
# “Also recorded” adds a separate entry of the source.
# Legend:
# [1] = biological target: T1, human serotonin 5-HT1b receptor (Homo sapiens, UniProt P28222); experiment: GTPγS assay, recombinant CHO-K1 membranes; assay type: biochemical; details: human recombinant cell lines; FIG. 1
# T1 construct: expressed in transfected cells; host or cells: CHO-K1 (membranes)
# Procedure: Eltoprazine was tested for activity on the human serotonin 5-HT1a and 5-HT1b receptors using a GTPγS assay. Recombinant membranes obtained from CHO-K1 cells expressing either the 5-HT1a or 5-HT1b receptors were mixed with GDP (volume:volume) and incubated for at least 15 min on ice. In parallel, GTPγ[35S] was mixed with the beads (volume:volume) just before starting the reaction. The following reagents were successively added in the wells of an Optiplate (Perkin Elmer): 50 μl of test compound, 20 μl of the membranes:GDP mix, 10 μl of assay buffer (for agonist testing) and 20 μl of the GTPγ[35S]:beads mix. The plates were covered with a top seal, shaken on an orbital shaker for 2 min, and then incubated for 1 h at room temperature. Then the plates were centrifuged for 10 min at 2000 rpm, incubated at room temperature 1 h and counted for 1 min/well with a PerkinElmer TopCount reader.
# [2] = biological target: T2, 5-HT2a recombinant receptor (Homo sapiens, UniProt P28223); experiment: Aequorin cell line functional assay; assay type: cell-based; details: human recombinant cell lines; FIG. 1
# T2 construct: expressed in transfected cells
# Procedure: (§1) Aequorin cell lines expressing the 5-HT2a, 5-HT2b and 5-HT2c non-edited (ne) recombinant receptors were used to evaluate the functional activity of eltoprazine. Aequorin cells grown 18 h prior to the test in media without antibiotics were detached by gentle flushing with PBS-EDTA (5 mM EDTA), recovered by centrifugation and resuspended in “assay buffer” (DMEM/HAM's F12 with HEPES+0.1% BSA protease free). Cells were incubated at room temperature for at least 4 h with Coelenterazine h (Molecular Probes). The reference agonist used were 5-HT and α-methyl-5-HT. For agonist testing, 50 μl of cell suspension were injected on 50 μl of test compound or reference agonist plated in a 96-well plate. The resulting emission of light was recorded using the Hamamatsu Functional Drug Screening System 6000 (FDSS 6000).
# [3] = biological target: T3, 5-HT2c non-edited (ne) recombinant receptor (Homo sapiens, UniProt P28335); experiment: Aequorin cell line functional assay; assay type: cell-based; details: human recombinant cell lines; FIG. 1
# T3 construct: expressed in transfected cells
# T3 sequence (P28335 33-458): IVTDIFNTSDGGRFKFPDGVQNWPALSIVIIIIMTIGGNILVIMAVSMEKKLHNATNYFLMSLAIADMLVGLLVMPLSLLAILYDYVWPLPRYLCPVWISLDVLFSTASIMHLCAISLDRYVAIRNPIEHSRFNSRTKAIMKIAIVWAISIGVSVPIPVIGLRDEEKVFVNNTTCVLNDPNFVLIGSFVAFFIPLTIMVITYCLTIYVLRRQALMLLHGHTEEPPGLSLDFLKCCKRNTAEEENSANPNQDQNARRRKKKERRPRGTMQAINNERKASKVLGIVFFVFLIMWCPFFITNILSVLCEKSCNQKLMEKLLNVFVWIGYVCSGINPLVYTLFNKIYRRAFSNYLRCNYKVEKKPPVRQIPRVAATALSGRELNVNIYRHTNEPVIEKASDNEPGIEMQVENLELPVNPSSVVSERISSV
# Procedure: as §1
# Sprague-Dawley rats = experiment: Contextual fear conditioning; assay type: in vivo; details: acute s.c. 0.078 to 1.25 mg/kg, 60 min before the test; FIG. 4
# Procedure: For contextual fear conditioning, open field, fear potentiated startle and elevate plus maze, experimentally naive adult male Sprague-Dawley rats (250-300 g; Janvier, France) were housed in groups of four per cage. Colony room temperature and humidity were maintained respectively at 20±1° C. and 60±3%. Food and water were available ad libitum and the animals were kept under an alternating 12 h/12 h day-night cycle (lights on at 07.00) for at least 6 days before the experiments were started. All experiments were conducted during the light period of the day-night cycle. For the Vogel test, male experimentally naive Wistar rats (180-220 g, State Breeding Farm “Rappolovo”, St. Petersburg, Russia; N=109) were used. Each animal was used only once.
# Eltoprazine hydrochloride was dissolved in sterile water. […]
# For training and testing, subjects were placed in test cages (30 cm wide, 29 cm high and 25 cm deep) equipped with a grid floor consisting of 18 stainless steel bars (3 mm ID). […] 24 h after conditioning, subjects are placed back in the test cages and freezing is recorded for a period of 5 min. […]
# Percent of freezing during the 5 min expression test on day 2 is taken for statistical analysis. Data are analysed by one-way ANOVA on ranks followed by rank sum tests.
# 5-HT1a receptor = details: Schipper et al. 1990; cited from earlier work
# 5-HT1b receptor = 5-HT1b receptor (Rattus norvegicus, UniProt P28564); details: Schipper et al. 1990; cited from earlier work
# [4] = Rodgers et al., 1992; Rocha et al., 1994; cited from earlier work
# patients = details: clinical trials, de Koning et al. 1994; cited from earlier work
# Chain of 5-HT1b receptor (P28564 whole entry): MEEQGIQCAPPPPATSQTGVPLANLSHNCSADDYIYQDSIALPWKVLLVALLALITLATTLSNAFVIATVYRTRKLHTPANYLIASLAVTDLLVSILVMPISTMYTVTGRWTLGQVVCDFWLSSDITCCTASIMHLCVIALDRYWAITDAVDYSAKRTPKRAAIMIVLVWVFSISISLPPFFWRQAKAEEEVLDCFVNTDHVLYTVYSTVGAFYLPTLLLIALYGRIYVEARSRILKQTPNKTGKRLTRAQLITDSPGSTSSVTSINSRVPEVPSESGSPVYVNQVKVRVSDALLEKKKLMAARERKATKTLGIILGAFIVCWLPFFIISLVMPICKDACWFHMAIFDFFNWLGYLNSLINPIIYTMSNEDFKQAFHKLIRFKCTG
# T2 sequence (P28223 whole entry): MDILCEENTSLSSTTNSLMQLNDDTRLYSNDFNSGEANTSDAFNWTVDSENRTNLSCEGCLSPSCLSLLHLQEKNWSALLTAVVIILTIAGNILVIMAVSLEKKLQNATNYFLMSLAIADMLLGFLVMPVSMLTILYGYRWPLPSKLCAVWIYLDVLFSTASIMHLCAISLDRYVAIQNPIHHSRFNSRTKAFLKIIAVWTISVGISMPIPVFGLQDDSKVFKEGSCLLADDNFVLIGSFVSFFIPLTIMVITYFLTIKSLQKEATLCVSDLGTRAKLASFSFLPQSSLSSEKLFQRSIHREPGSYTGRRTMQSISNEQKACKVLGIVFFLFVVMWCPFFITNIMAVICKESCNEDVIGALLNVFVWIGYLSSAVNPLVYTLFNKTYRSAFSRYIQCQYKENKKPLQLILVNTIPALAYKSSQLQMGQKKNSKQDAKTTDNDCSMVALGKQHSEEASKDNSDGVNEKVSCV
# T1 sequence (P28222 whole entry): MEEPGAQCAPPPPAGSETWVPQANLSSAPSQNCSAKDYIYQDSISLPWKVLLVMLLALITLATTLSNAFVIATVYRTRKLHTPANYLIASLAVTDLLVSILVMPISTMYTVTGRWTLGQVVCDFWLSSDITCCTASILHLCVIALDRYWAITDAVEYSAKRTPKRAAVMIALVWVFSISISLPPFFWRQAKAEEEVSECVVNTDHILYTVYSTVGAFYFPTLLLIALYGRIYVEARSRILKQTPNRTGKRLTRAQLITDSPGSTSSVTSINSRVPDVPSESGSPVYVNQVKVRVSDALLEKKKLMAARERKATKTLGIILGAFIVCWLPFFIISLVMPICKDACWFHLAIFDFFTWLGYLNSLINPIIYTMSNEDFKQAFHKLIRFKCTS
compound,measurement,setting,value
"c1cc2c(c(N3CCNCC3)c1)OCCO2 [eltoprazine, 1-(2,3-dihydro-1,4-benzodioxin-5-yl)piperazine]",functional activity at 5-HT1b receptor,[1],partial agonistic action
same,functional activity at 5-HT2a receptor,[2],full agonist
same,functional activity at 5-HT2c receptor,[3],full agonist
same,time spent freezing during re-exposure to the conditioning context,Sprague-Dawley rats,dose-dependently induced anxiolytic-like effects; also recorded: very strong anxiolytic effect
same,effect on 5-HT1a receptor,5-HT1a receptor,agonistic effect
same,effect on 5-HT1b receptor,5-HT1b receptor,agonistic effect
same,"effect in the elevated plus maze, previous data",[4],anxiogenic-like effects
same,clinical safety,patients,clinically safe
